Values of other authors, collected in patent publication US8785427B2, “Enzymatic process for obtaining 17 alpha-monoesters of cortexolone and/or its 9,11-dehydroderivatives” (Cosmo Dermatos Srl, priority 2007, dated 2014).

Conditions: both in vitro and in vivo on the animal; described in EP1421099

| Structure (SMILES) | antiandrogenic biological activity |
| --- | --- |
| CCCC(=O)O[C@]1(C(=O)CO)CC[C@H]2[C@@H]3CCC4=CC(=O)CC[C@]4(C)C3=CC[C@@]21C [9,11-dehydro-cortexolone-17-α-butanoate, 9,11-Dehydro-Cortexolone-17α-Butanoate] | high antiandrogenic biological activity |
| CCC(=O)O[C@]1(C(=O)CO)CC[C@H]2[C@@H]3CCC4=CC(=O)CC[C@]4(C)[C@H]3CC[C@@]21C [cortexolone 17α-propionate] | high antiandrogenic biological activity |
